According to ChEMBL document CHEMBL1151039, “Muscarinic antagonist activity of 3-(5-alkoxy-oxazol-2-yl)-1,2,5,6-tetrahydropyridines” (Bioorg Med Chem Lett, 1994):

What follows are molecules tested on Mus musculus (assay: In vivo antagonist activity measured as inhibition of oxotremorine induced tremors in mice at 1 mg/kg of ip administration). Conditions: route intraperitoneal.
Type: functional

**Q.** CN1[C@@H]2C[C@@H](OC(=O)[C@H](CO)c3ccccc3)C[C@H]1[C@@H]1O[C@@H]12 [SCOPOLAMINE] was tested. Which AD50 did it give?
**A.** Its AD50 is 0.1 mg/kg.

What follows are molecules tested against Muscarinic acetylcholine receptor (assay: Inhibition of [3H]pirenzepine binding to muscarinic receptor in rat cortical homogenates). Conditions: not given.

**Q.** With CCCOc1oc(C2=CCCN(C)C2)nc1C(C)CC (stereo not given) as the molecule, how does the Ki read?
**A.** The Ki was 0.8 nM.

**Q.** How did the Ki turn out when CCC(C)c1nc(C2=CCCN(C)C2)oc1OC (stereo not given) was run?
**A.** Its Ki is 2 nM.

**Q.** CCCCOc1oc(C2=CCCN(C)C2)nc1C(C)CC (stereo not given) was tested. Which Ki did it give?
**A.** The Ki was 1.5 nM.

**Q.** For COc1cnc(C2=CCCN(C)C2)o1, which Ki is on record?
**A.** Its Ki is over 1000 nM.

**Q.** COc1oc(C2=CCCN(C)C2)nc1Cc1ccccc1 was tested. Which Ki did it give?
**A.** Its Ki is 16 nM.

**Q.** How did the Ki turn out when CCCCc1nc(C2=CCCN(C)C2)oc1OC was run?
**A.** Its Ki is 11 nM.

**Q.** For CCc1nc(C2=CCCN(C)C2)oc1OC, which Ki is on record?
**A.** The Ki was 30 nM.

**Q.** With CCCCCCOc1oc(C2=CCCN(C)C2)nc1C(C)CC (stereo not given) as the molecule, how does the Ki read?
**A.** The Ki was 22 nM.

**Q.** With COc1oc(C2=CCCN(C)C2)nc1C as the molecule, how does the Ki read?
**A.** The Ki was 90 nM.

**Q.** With COc1oc(C2=CCCN(C)C2)nc1CC(C)C as the molecule, how does the Ki read?
**A.** The Ki was 25 nM.

**Q.** How did the Ki turn out when CCOc1oc(C2=CCCN(C)C2)nc1C(C)CC (stereo not given) was run?
**A.** Its Ki is 0.8 nM.

**Q.** For COc1oc(C2=CCCN(C)C2)nc1C(C)C, which Ki is on record?
**A.** Its Ki is 10 nM.

**Q.** For CCOc1oc(C2=CCCN(C)C2)nc1C, which Ki is on record?
**A.** Its Ki is 33 nM.

Species: Rattus norvegicus
Test: In vitro inhibition of acetylcholine induced phosphatidyl inositol hydrolysis in a rat cerebral cortex slice preparation
Type: functional
Conditions: not given

**Q.** Which IC50 does the source give for CN1[C@@H]2C[C@@H](OC(=O)[C@H](CO)c3ccccc3)C[C@H]1[C@@H]1O[C@@H]12 [SCOPOLAMINE] here?
**A.** The IC50 was 8.9 nM.
